How the values were obtained:
[1] = Stability HPLC data summary of Form A1 of valbenazine oxalate (appearance, assay, HPLC, chiral HPLC, moisture on storage); type: physicochemical; details: 2~8° C.; for Appearance: double PE bags sealed in laminated aluminum foil bag
Source text: Stability Data of Form A1 of Valbenazine Oxalate [table]

[2] = Stability of valbenazine salts, general statement

## valbenazine oxalate [Form A1 of valbenazine oxalate]
[1]; 0 months
  Assay (Anhydrous): 100.1%
  Chiral HPLC Chiral imp-1: 0.01%
  Chiral HPLC Chiral imp-2: 0.04%
  Chiral HPLC Chiral imp-3: 0.03%
  Chiral HPLC Valbenazine: 99.93%
  HPLC Imp-1 (LSI): 0.03%
  HPLC Imp-2: 0.01%
  HPLC Imp-3: 0.02%
  HPLC Imp-4: 0.02%
  HPLC Imp-5: 0.01%
  HPLC Imp-7: 0.01%
  HPLC Valbenazine: 99.81%
  Moisture: 0.12%
  Appearance: White
[1]; 0.5 months
  Assay (Anhydrous): 100.8%
  Chiral HPLC Chiral imp-1: 0.01%
  Chiral HPLC Chiral imp-2: 0.04%
  Chiral HPLC Chiral imp-3: 0.03%
  Chiral HPLC Valbenazine: 99.93%
  HPLC Imp-1 (LSI): 0.03%
  HPLC Imp-3: 0.03%
  HPLC Imp-5: 0.01%
  HPLC Imp-7: 0.02%
  HPLC Valbenazine: 99.84%
  Moisture: 0.2%
  Appearance: White solid
[1]; 1 months
  Assay (Anhydrous): 101.0%
  Chiral HPLC Chiral imp-1: 0.01%
  Chiral HPLC Chiral imp-2: 0.04%
  Chiral HPLC Valbenazine: 99.95%
  HPLC Imp-1 (LSI): 0.03%
  HPLC Imp-2: 0.01%
  HPLC Imp-3: 0.02%
  HPLC Imp-4: 0.01%
  HPLC Imp-5: 0.01%
  HPLC Imp-7: 0.01%
  HPLC Valbenazine: 99.84%
  Moisture: 0.19%
  Appearance: White solid
[1]; 3 months
  Assay (Anhydrous): 100.33%
  Chiral HPLC Chiral imp-1: 0.01%
  Chiral HPLC Chiral imp-2: 0.07%
  Chiral HPLC Chiral imp-3: 0.02%
  Chiral HPLC Valbenazine: 99.91%
  HPLC Imp-1 (LSI): 0.04%
  HPLC Imp-2: 0.02%
  HPLC Imp-3: 0.04%
  HPLC Imp-4: 0.03%
  HPLC Imp-5: 0.02%
  HPLC Imp-7: 0.01%
  HPLC Valbenazine: 99.78%
  Moisture: 0.4%
  Appearance: White solid
[2]
  stability (in words): good stability

Source: patent US20210253567A1, “AMORPHOUS AND CRYSTALLINE FORMS OF VALBENAZINE SALT” (SUZHOU PENGXU PHARMATECH CO., LTD., priority 2018, published 2021)
